Assay results from patent publication US5767119A, “Method of treating neurodegenerative diseases using an AMPA excitatory amino and an uricosuric agent” (Warner-Lambert Company, priority 1996, dated 1998).
Like-named read-outs stand apart in the source and are kept apart here. Values belong to the molecule of their own block, whether it stands above or below them.

What was measured:
[1] = NMDA-induced brain injury (neuroprotection), injection into the striatum; assay type: in vivo, rat (seven-day-old albino pups)
Protocol: The neuroprotective action of 5,7-dichlorokynurenate is assessed using an animal model with young rats. Seven-day-old albino rat pups of either sex are anesthetized and given N-methyl-D-aspartate (NMDA) by injection with a fine hypodermic needle into the right posterior corpus striatum. Four days later, the degree of brain damage from NMDA injection is assessed by comparing wet weights of the injected cerebral hemispheres. Methods are similar to those of J. W. McDonald et al. in Experimental Neurology 106:289-296 (1989) except that 15 nmol of NMDA is used rather than 25 nmol as in the McDonald method. The neuroprotective action of 5,7-dichlorokynurenic acid is assessed by injecting it directly into the striatum of the brain in combination with NMDA.

[2] = mouse, in vivo, iv
[3] = mouse, in vivo
Protocol: A follow-up study is performed in which tritiated 5,7-dichloro-1,4-dihydro-4-oxo-2-quinolinecarboxylic acid is injected directly into the cerebral ventricle of mice at two dose levels.

[4] = maximal electroshock, prevention of tonic extensor seizures (anticonvulsant action); assay type: in vivo, mice (adult male CF1 strain); details: for ED50: probit analysis
Protocol: Adult male CF1 strain mice (18 to 24 g body weight) are obtained from Charles River Laboratories. Mice are allowed free access to food and water prior to testing. Maximal electroshock is performed according to conventional methods (Krall, R. L., et al, Antiepileptic drug development: II. Anticonvulsant drug screening, Epilepsia 19:409-428 (1978). Electrical current (50 mA sinusoid at 60 Hz) is applied by metal corneal electrodes for 0.2 sec. This intensity of electrical current is five times the amount needed to produce tonic extensor seizures in untreated mice. Pretreatment of mice with known anticonvulsant drugs prevents tonic extensor seizures in a dose-related manner (Krall, R. L., et al, Antiepileptic drug development: II. Anticonvulsant drug screening, Epilepsia 19:409-428 (1978). A drug is prepared for intravenous administration by dissolution in aqueous medium with 0.9% sodium chloride. Probenecid is finely divided with mortar and pestle and suspended in 0.2% carboxymethylcellulose in water and given by intraperitoneal injection 30 minutes before administration of anticonvulsant drugs.
That is, groups of ten mice each are pretreated with probenecid (200 mg/kg IP) or saline vehicle. Thirty minutes later each group is given a known anticonvulsant dose of one of several anticonvulsant drugs. The time course of anticonvulsant activity is determined by maximal electroshock testing in groups of mice at various times after administration of the anticonvulsant.
Using procedures identical to those of Example 2, but with administration of several different doses of NBQX, ED50 values were determined by probit analysis (J. T. Litchfield and F. Wilcoxon in Journal of Pharmacology 96:99-113, 1949), with times of testing chosen at approximately the time of maximal anticonvulsant effect (30 seconds for NBQX alone and 10 minutes for NBQX with probenecid coadministration, from Example 1).

[5] = cited from earlier work; for Protection: MDL 100,748 65 mg/kg IV
CNS behavioral effects = assay type: in vivo, mice; details: NBQX 25 mg/kg in combination with probenecid

ratio of area under the brain radioactivity curve (5-120 minutes) for the 1.3 mg/kg to 0.3 mg/kg dose [3]: 12
Compound: O=C(O)c1cc(O)c2c(Cl)cc(Cl)cc2n1 [5,7-dichlorokynurenic acid]
neuroprotective action ([1]; three different doses co-injected with 15 nmol NMDA, pretreatment with 200 mg/kg probenecid): significantly enhanced
penetration and/or retention of radiolabeled material in brain tissue [2]: very little penetration and/or retention of radiolabeled material is observed in brain tissue
transport from brain to blood [3]: actively transported from brain to blood by a saturable process

Compound: O=C(O)C1CN(CCCP(=O)(O)O)CCN1 (stereo not shown) [CPP, 4-(3-phosphonopropyl)-2-piperazinecarboxylic acid]
duration of significant anticonvulsant action ([4]; CPP 3 mg/kg IV, with probenecid 200 mg/kg IP): 240 min
percentage of mice protected from maximal electroshock seizures ([4]; CPP 3 mg/kg IV, with vs without probenecid coadministration): increased by probenecid coadministration at each time point tested
duration of significant anticonvulsant action ([4]; CPP 3 mg/kg IV, without probenecid): 120 min

Compound: O=C(O)CN=c1cc(C(=O)O)[nH]c2cc(Cl)cc(Cl)c12 [MDL 100,748, 4-[(carboxymethyl)imino]-5,7-dichloro-1,4-dihydro-2-quinolinecarboxylic acid]
Protection ([5]; 5 min prior to QA, without probenecid): 9/10
Protection ([5]; 5 min prior to QA, pretreated with probenecid 200 mg/kg IP 30 min before): 9/10
Protection ([5]; 30 min prior to QA, without probenecid): 0/10
Protection ([5]; 30 min prior to QA, pretreated with probenecid 200 mg/kg IP 30 min before): 7/10
duration of protection against seizures induced by quinolinic acid ([5]; pretreated with probenecid, preliminary): longer duration of protection against seizures

Compound: NS(=O)(=O)c1cccc2c1c([N+](=O)[O-])cc1nc(O)c(O)nc12 [NBQX, 2,3-dihydroxy-6-nitro-7-sulfamoyl-benzo(F)-quinoxaline]
ED50 ([4]; Mus musculus, 0.5 min, NBQX alone, IV, tested at 30 seconds, read-out: ED50): 13.1 mg/kg
time until which significant anticonvulsant actions are present ([4]; NBQX 25 mg/kg IV after saline vehicle): 3 min
anticonvulsant action ([4]; NBQX 25 mg/kg IV after saline vehicle, 15 minutes after dosing): only insignificant anticonvulsant action is seen
anticonvulsant effects ([4]; NBQX 25 mg/kg IV with probenecid 200 mg/kg IP, 15 minutes after dosing): significant anticonvulsant effects are seen
anticonvulsant effects ([4]; NBQX 25 mg/kg IV with probenecid 200 mg/kg IP, 30 minutes after dosing): significant anticonvulsant effects are seen
anticonvulsant effects ([4]; NBQX 25 mg/kg IV with probenecid 200 mg/kg IP, 1 hour after dosing): significant anticonvulsant effects are seen
anticonvulsant effects ([4]; NBQX 25 mg/kg IV with probenecid 200 mg/kg IP, 2 hours after dosing): significant anticonvulsant effects are seen
anticonvulsant effects (significant effects seen or not) ([4]; NBQX 25 mg/kg IV with probenecid 200 mg/kg IP, 4 hours after dosing): not 4 hours (14400 seconds) after dosing
ED50 ([4]; NBQX IV coadministered with probenecid 200 mg/kg IP, tested at 10 minutes): 2.57 mg/kg
increase in potency following probenecid coadministration ([4]; NBQX with vs without probenecid, ED50 values differ significantly (p <0.05)): approximately fivefold
CNS behavioral effects (CNS behavioral effects): ptosis, profoundly decreased locomotor activity, greatly delayed righting reflex, and somnolence

Compound: CCCN(CCC)S(=O)(=O)c1ccc(C(=O)O)cc1 [Probenecid]
anticonvulsant actions ([4]; probenecid 200 mg/kg IP followed by IV sodium chloride vehicle): no anticonvulsant actions in any of 10 mice
extent of brain damage ([1]; probenecid alone, in comparison to untreated animals): did not alter the extent of brain damage
